Experimental findings from US20260125654A1, “Method for Producing a Three-Dimensional Human Multiple-Myeloma Model” (Etablissement Français du Sang, priority 2022, published 2026) are described below.

This assay relates to plasma cells in MM spheroids. As to the kind of experiment: Viability of plasma cells in 3D MM spheroids treated with melphalan, flow cytometry (CD38/CD138/DAPI). Type of assay: cell-based, human. The following applies: for viability at 10 µM: Homo sapiens, 10 μM melphalan. The protocol: Following a total bone marrow sample at diagnosis in patients with multiple myeloma (MM), MM plasma cells are separated and then counted in a Malassez cell. The cells were then used freshly for cocultures or were frozen in CRYOSTOR. The MM total marrow cells coming from another patient were seeded according to the initial number thereof and the cells were incubated at a temperature of 37° C. and under an atmosphere with 5% carbon dioxide for about 2 weeks. Once confluence was reached, mesenchymal stem/stromal cells (MSCs), endothelial cells and endothelial progenitors were treated with trypsin and counted.
The MSC cells, the endothelial cells and the endothelial progenitors treated with trypsin and the fresh or thawed plasmocytes in a ratio of 1 MSC per 2 plasmocytes were suspended on ULA (Ultra-Low adherence) plates in 50 μL of RPMI medium (10% FCS, 1% PS). The cells were then incubated at a temperature of 37° C. and an atmosphere with 5% carbon dioxide with stirring. 150 μL of RPMI medium were added after incubation for 24 h and the medium was renewed 2 times per week, removing 100 μL of supernatant.
A treatment with […] melphalan was added to the spheroid culture medium 48 h after the formation thereof and the culture was continued for 14 days. The selection method was supplemented by a control situation, without the presence of a drug candidate. Part of the cultures was stopped after 7 (D+7) and 11 (D+11) days to analyze the viability of the plasma cells, whereas the rest of the cultures was stopped after 14 days of culture (D+14). Spheroid cells were mechanically dissociated at 1400 rpm with AccuMax® and then transferred into a tube suitable for flow cytometry and washed with PBS and labeled with the CD38 FITC and CD138 AF700 specific antibodies in MACS buffer. The cells were then incubated at 4° C. for 30 minutes, washed and resuspended in a MACS buffer medium and filtered at 70 μm, and finally labeled with the viability marker DAPI before passing through flow cytometry.
On the technique in general: In flow cytometry, cells or beads pass a laser one at a time.

As for `N[C@@H](Cc1ccc(N(CCCl)CCCl)cc1)C(=O)O` [melphalan], the viability at 10 µM is, setting by setting: (D+7) 5%; (D+11) under 5%; (D+14) under 10%. For the setting “melphalan 10 μM”, the “response to treatment of plasma cells within spheroids” value is “strong response”.

One may read the viability as a per cent measure of how many cells are alive, often set against a control.
